Article PMC11318018 (ACS Medicinal Chemistry Letters, 2024)

Biological target: HiBiT-RR BRD4 (Homo sapiens, UniProt O60885)
Experiment: Kinetic degradation of HiBiT-RR BRD4 CRISPR knock-in in HEK293 cells
Type: cell-based

## Cc1ncsc1-c1ccc(CNC(=O)[C@@H]2C[C@@H](O)CN2C(=O)[C@@H](NC(=O)COCCOCCOCCNC(=O)C[C@@H]2N=C(c3ccc(Cl)cc3)c3c(sc(C)c3C)-n3c(C)nnc32)C(C)(C)C)cc1 [MZ1]
  DC50 or Dmax difference HiBiT-KK vs HiBiT-RR BRD4: no significant DC50 or Dmax difference
